These results are taken from patent US6545033B1, “Fused 1-(2,6-dichloro-4-trifluoromethylphenyl)-pyrazoles, the synthesis thereof and the use thereof as pesticides” (3-Dimensional Pharmaceuticals, Inc., priority 1999, dated 2003).

In general, IC50 refers to the concentration that inhibits the measured activity by half.

Assay [1] deals with houseflies (Musca domestica). Nature of the assay: In vivo housefly contact assay. As to conditions: contact in coated glass test tube, about 24 hours; mM = concentration of the DMSO solution, about 1 μL applied. On the procedure:
This example describes an in vivo assay to screen compounds for their ability to kill houseflies via contact. Newly emerged houseflies (Musca domestica, available from Rincon-Vitova Insectaries, Inc., Ventura, Calif.) were sedated with carbon dioxide gas, collected in 50 mL polypropylene conical tubes containing filter paper saturated with 10% (w/w) sucrose in water, and allowed to feed at room temperature for about 2-4 hours. Test compounds were dissolved as in dimethylsulfoxide (DMSO) at concentrations ranging from about 0.05 mM to about 100 mM. About 1 μL of dissolved test compound and about 100 μL of isopropanol were dispensed into the bottom of a 9 mL screw-top glass test tube. Positive control test tubes were prepared in the same manner except that no test compounds were dissolved in the DMSO. Each test tube was rolled to coat the sides with the chemical solution, and allowed to air dry 24-48 hours. About 20 houseflies were sedated by refrigeration at 0-4° C. and transferred to each test tube. Each test tube was sealed with organdy cloth secured by an open top screw cap and laid horizontally in the dark. After about 24 hours, the healthy, moribund, and dead houseflies in each test tube were counted. The percentage of dead houseflies in each test tube was then calculated using the formula M=100(D−(FC/100))/(F−(FC/100)), in which M is the percentage of dead houseflies due to the addition of the test compound, D is the number of dead houseflies in the test tube, F is the total number of houseflies in the test tube, and C is the percentage of dead houseflies in the control test tubes.

The subject of assay [2] is cat fleas (Ctenocephalides felis), NC Fleas. Description: In vivo cat flea contact assay, NC fleas. As to conditions: contact with treated filter disk in vial, about 24-30 hours; mM = concentration of the DMSO solution, about 1 μL applied. On the procedure:
This example describes an in vivo assay to screen compounds for their ability to kill cat fleas via contact.
Test compounds were dissolved in dimethylsulfoxide (DMSO) at concentrations ranging from about 0.05 mM to about 100 mM. About 1 μL of dissolved test compound was dispensed onto a 6 mm (diameter) GF/C filter disk (filter material available from Whatman Inc., Clifton, N.J.) in the bottom of a 4 mL screw-top glass vial and allowed to air dry 24-48 hours. Positive control vials were prepared in the same manner except that no test compounds were dissolved in the DMSO. About 20 newly emerged cat fleas (Ctenocephalides felis) were sedated by refrigeration at 0-4° C. and transferred to each vial. Each vial was sealed with a thin, perforated Teflon™ septum secured by an open top screw cap and held vertically in the dark. After about 24-30 hours, the healthy, moribund, and dead cat fleas in each vial were counted. The percentage of dead cat fleas in each vial was then calculated using the formula M=100(D−(FC/100))/(F−(FC/100)), in which M is the percentage of dead cat fleas due to the addition of the test compound, D is the number of dead cat fleas in the test vial, F is the total number of cat fleas in the test vial, and C is the percentage of dead cat fleas in the control vials.

In assay [3] the target is Mouse Brain GABA Receptors. Description: In vitro assay of binding to mouse brain GABA receptors (3H-EBOB displacement, mouse brain membranes). To be noted: displacement of 5.2 nM 3H-EBOB, about 45 min at about 24° C. On the procedure:
Mouse brains were obtained from carbon dioxide-asphyxiated Swiss-Webster mice, washed with phosphate-buffered saline, and used either fresh or after storage at −80° C. for up to 10 months. Unless specified, all preparation steps were performed at 0-4° C. For each preparation, 20 brains were suspended in about 40 mL of 0.32 M sucrose and homogenized for about 2 minutes, using a Tissumizer™ homogenizer equipped with a SDT-100EN probe (available from Tekmar-Dohrmann, Cincinnati, Ohio) running at 50% of its maximum speed. The extract was centrifuged for about 5 min at about 1000×g to pellet intact brain tissue. The supernatant was retained and the pellet washed with an additional 40 mL of 0.32 M sucrose and centrifuged at 1000×g for about 5 minutes. The 1000×g supernatants were combined and centrifuged at about 10,000×g for about 20 min to pellet membranes. The 10,000×g supernatant was discarded and the pellet was resuspended in about 20 mL of water containing 1 mM EDTA. The sample was dialyzed two times for about 3 hours each against about 3 L of water. The sample was then centrifuged at about 25,000×g for about 30 min to pellet the membranes. After centrifugation, the supernatant was discarded and the wet pellet recovered. The protein concentration of the pellet was determined by the Bio-Rad Protein Assay (available from Bio-Rad Laboratories, Hercules, Calif.) using bovine serum albumin as a standard. The membranes were aliquoted and stored at −80° C. for up to 6 months before use.
Mouse brain membranes were prepared as described above from dissected mouse brains. Test compounds were dissolved in dimethylsulfoxide (DMSO) at concentrations ranging from about 2 nM to about 100 mM. About 1 μL of a dissolved test compound was dispensed into a well of a 96-well polystyrene plate. About 100 μL of ice cold assay buffer (10 mM phosphate, 300 mM NaCl, pH 7.5) containing 5.2 nM 4′-Ethynyl-4-n-[2,3-^3H2]propylbicycloorthobenzoate (^3H-EBOB, 38 Ci/mmol, available from NEN Life Science Products, Boston, Mass.) was added to the well, followed by about 100 μL of ice cold assay buffer containing about 0.25-0.5 mg/mL mouse brain membranes. Control wells were prepared the same way except that the mouse brain membranes were omitted from the “negative” wells, and the test compounds were omitted from the “positive” wells. The samples were incubated for about 45 min at about 24° C. and then filtered on a 0.1% (w/v) polyethylenimine-soaked glass fiber Filtermat A (available from EG&G Wallac Inc., Gaithersburg, Md.) followed by four 100 mL rinses of cold assay buffer using a Harvester 96® cell harvester (available from Tomtec, Orange, Conn.). The filtermat was air dried and radioactivity bound to the filtermat was detected with either a 1450 MicroBeta® Trilux scintillation counter (available from EG&G Wallac Inc.) or a Topcount NXT™ scintillation counter (available from Packard Instrument Co., Meriden, Conn.) using standard methods.
Specific binding was considered to be the difference between total ^3H bound to the mouse brain membranes in the absence of any inhibitors and nonspecific ^3H bound to the mouse brain membranes upon the addition of 5 μM unlabeled EBOB. The average radioactivity contained in the “negative” wells was subtracted from each of the assay wells. […] Compounds that displaced ^3H-EBOB specifically bound to the mouse brain membranes were tested at 24-48 different final concentrations, varying from about 1 nM to about 125 μM, in order to determine the concentration at which 50% of the maximum inhibition due to the addition of that compound was observed (IC50). […]

SMILES strings stand for the structures.

In the case of `FC(F)(F)c1cc(Cl)c(-n2cc3c(n2)CCCCC3)c(Cl)c1` [Compound 15, 2-[2,6-Dichloro-4-(trifluoromethyl)phenyl]-2,4,5,6,7,8-hexahydrocyclohepta[c]pyrazole], in assay [1], the “LD50 (mM), Flies” value is listed as over 100 mM. Besides, in assay [2], the “LD50 (mM), NC Fleas” value is 33.5 mM. In addition, the half-maximal inhibitory concentration (IC50) in assay [3] was 30000 nM.
As for `FC(F)(F)c1cc(Cl)c(-n2cc3c(n2)CCC3)c(Cl)c1` [Compound 11, 2-[2,6-Dichloro-4-(trifluoromethyl)phenyl]-2,4,5,6-tetrahydrocyclopenta[c]pyrazole], the “LD50 (mM), Flies” value in assay [1] is recorded as over 100 mM. For the same molecule, the “LD50 (mM), NC Fleas” value in assay [2] worked out at 7 mM. The molecule further displayed an IC50 in assay [3] of 1600 nM.
As for `FC(F)(F)c1cc(Cl)c(-n2cc3c(n2)CSC3)c(Cl)c1` [Compound 3, 2-[2,6-Dichloro-4-(trifluoromethyl)phenyl]-4,6-dihydrothieno-[3,4-c]pyrazole], the “LD50 (mM), Flies” value in assay [1] turned out to be 2.7 mM. The “LD50 (mM), NC Fleas” value in assay [2] was 3.0 mM. Besides, the half-inhibitory concentration (IC50) in assay [3] came to 2000 nM.
